Data published in patent US20130065928A1, “BIOMARKERS FOR PI3K-DRIVEN CANCER” (WYETH LLC, priority 2010, published 2013).

Tests used:
PKN3-T860 = assay: Turn motif (T860) phosphorylation of Y27632-primed PKN3 after kinase inhibitor treatment (Western blot); type: cell-based, human; conditions: WT and KD PKN3, doxycycline 1 μg/ml 5 hours, primed with 10 μM Y27632, inhibitor 7 hours; FIGS. 4 and 5
Text: (§1) The full-length cDNA of human PKN3 (WT or wt) was amplified by PCR and cloned into a GST-fusion expression vector under the control in a doxycycline (Dox)-inducible promoter. A kinase dead (KD or kd) version of PKN3, which comprises a K588R substitution, was also cloned into the same vector using the same strategy. The proteins were expressed in HEK293T cells transfected with the PKN3 WT and KD constructs.
(§2) For protein extraction, cells were washed twice with cold phosphate-buffered saline (PBS) and lysed at 4° C. in lysis buffer containing 20 mM Tris (pH 7.5), 137 mM NaCl, 15% (vol/vol) glycerol, 1% (vol/vol) Nonidet P-40 (NP-40), 2 mM phenylmethylsulfonyl fluoride, […] of aprotinin per ml, […] leupeptin, 2 mM benzamidine, 1 mM sodium vanadate, 25 mM β-glycerolphosphate, 50 mM NaF, and 10 mM Na-pyrophosphate. Lysates were cleared by centrifugation at 14,000×g for 5 min, and aliquots of the lysates were analyzed for protein expression and enzyme activity (see below). Samples were separated by sodium dodecyl sulfate-polyacrylamide gel electrophoresis (SDS-PAGE) and transferred to nitrocellulose filters (Schleicher & Schuell). […] Bound antibody was detected with anti-mouse-, anti-goat, or anti-rabbit-conjugated alkaline phosphatase (Santa Cruz Biotechnology) in TBST, washed, and developed with nitroblue tetrazolium and 5-bromo-4-chloro-3-indolylphosphate (Promega). […]

S6K-ST389 = assay: Phosphorylation of S6K-ST389, a target of mTORC1 (Western blot); type: cell-based; conditions: PKN3-transfected cells, inhibitor 7 hours; FIGS. 4 and 5
Protocol: (§3) For protein extraction, cells were washed twice with cold phosphate-buffered saline (PBS) and lysed at 4° C. in lysis buffer containing 20 mM Tris (pH 7.5), 137 mM NaCl, 15% (vol/vol) glycerol, 1% (vol/vol) Nonidet P-40 (NP-40), 2 mM phenylmethylsulfonyl fluoride, […] of aprotinin per ml, […] leupeptin, 2 mM benzamidine, 1 mM sodium vanadate, 25 mM β-glycerolphosphate, 50 mM NaF, and 10 mM Na-pyrophosphate. Lysates were cleared by centrifugation at 14,000×g for 5 min, and aliquots of the lysates were analyzed for protein expression and enzyme activity (see below). Samples were separated by sodium dodecyl sulfate-polyacrylamide gel electrophoresis (SDS-PAGE) and transferred to nitrocellulose filters (Schleicher & Schuell). Filters were blocked in TBST buffer (10 mM Tris-HCl [pH 7.5], 150 mM NaCl, 0.05% [vol/vol] Tween 20, 0.5% [wt/vol] sodium azide) containing 5% (wt/vol) dried milk. The respective antibodies were added in TBST at appropriate dilutions. Bound antibody was detected with anti-mouse-, anti-goat, or anti-rabbit-conjugated alkaline phosphatase (Santa Cruz Biotechnology) in TBST, washed, and developed with nitroblue tetrazolium and 5-bromo-4-chloro-3-indolylphosphate (Promega). Alternatively, horseradish peroxidase-conjugated secondary antibodies were used and developed by enhanced chemiluminescence (Amersham).
(§4) PKN antibodies have been described in Leenders, 2004. […]

PKN3-T718 = assay: Activation loop (T718) phosphorylation of Y27632-primed PKN3 after kinase inhibitor treatment (Western blot); type: cell-based, human; conditions: WT and KD PKN3, doxycycline 1 μg/ml 5 hours, primed with 10 μM Y27632, inhibitor 7 hours; FIGS. 4 and 5
Text: as §1, §2

[1] = tested on: HEK293T cells transfected with wild-type PKN3; assay: PKN3-induced morphology changes in cells (photomicrographs); type: cell-based; conditions: FIG. 6, panel C
Text: FIG. 6 depicts photomicrographs of HEK293T cells transfected with wild-type (panels A, B and C) or kinase-dead (panels D, E and F) PKN3 constructs under control of a doxycycline responsive promoter, in the absence of doxycycline (panels A and D), in the presence of doxycycline (panels B and E) or in the presence of doxycycline and WAY-125132 (panels C and F).
The effects of WAY-125132 on PKN3-induced morphology changes in cells were examined.

AKT-S473 = assay: Phosphorylation of AKT-S473, a target of mTORC2 (Western blot); type: cell-based; conditions: PKN3-transfected cells, inhibitor 7 hours; FIGS. 4 and 5
Protocol: as §3, §4

PKN1 = assay: Phosphorylated PKN1 (Western blot); type: cell-based; conditions: PKN3-transfected cells, inhibitor 7 hours; FIGS. 4 and 5, panels C
Protocol: as §3, with “(Amersham). […]” for “(Amersham).”

PKN2 = assay: Phosphorylated PKN2 (Western blot); type: cell-based; conditions: PKN3-transfected cells, inhibitor 7 hours; FIGS. 4 and 5, panels C
Protocol: as §3, with “(Amersham). […]” for “(Amersham).”

PKN3 = target: T1, PKN3 (Homo sapiens, UniProt Q6P5Z2); assay: Kinase activity of PKN3 in transfected cells, phospho-GSKα read-out (Western blot); type: cell-based; conditions: cells transfected with WT PKN3; changing concentrations; FIG. 2
T1 construct: The full-length cDNA of human PKN3 (WT or wt) was amplified by PCR and cloned into a GST-fusion expression vector; GST; expressed in transfected cells; host or cells: HEK293T
T1 sequence (Q6P5Z2 whole entry, the tested form may be a part): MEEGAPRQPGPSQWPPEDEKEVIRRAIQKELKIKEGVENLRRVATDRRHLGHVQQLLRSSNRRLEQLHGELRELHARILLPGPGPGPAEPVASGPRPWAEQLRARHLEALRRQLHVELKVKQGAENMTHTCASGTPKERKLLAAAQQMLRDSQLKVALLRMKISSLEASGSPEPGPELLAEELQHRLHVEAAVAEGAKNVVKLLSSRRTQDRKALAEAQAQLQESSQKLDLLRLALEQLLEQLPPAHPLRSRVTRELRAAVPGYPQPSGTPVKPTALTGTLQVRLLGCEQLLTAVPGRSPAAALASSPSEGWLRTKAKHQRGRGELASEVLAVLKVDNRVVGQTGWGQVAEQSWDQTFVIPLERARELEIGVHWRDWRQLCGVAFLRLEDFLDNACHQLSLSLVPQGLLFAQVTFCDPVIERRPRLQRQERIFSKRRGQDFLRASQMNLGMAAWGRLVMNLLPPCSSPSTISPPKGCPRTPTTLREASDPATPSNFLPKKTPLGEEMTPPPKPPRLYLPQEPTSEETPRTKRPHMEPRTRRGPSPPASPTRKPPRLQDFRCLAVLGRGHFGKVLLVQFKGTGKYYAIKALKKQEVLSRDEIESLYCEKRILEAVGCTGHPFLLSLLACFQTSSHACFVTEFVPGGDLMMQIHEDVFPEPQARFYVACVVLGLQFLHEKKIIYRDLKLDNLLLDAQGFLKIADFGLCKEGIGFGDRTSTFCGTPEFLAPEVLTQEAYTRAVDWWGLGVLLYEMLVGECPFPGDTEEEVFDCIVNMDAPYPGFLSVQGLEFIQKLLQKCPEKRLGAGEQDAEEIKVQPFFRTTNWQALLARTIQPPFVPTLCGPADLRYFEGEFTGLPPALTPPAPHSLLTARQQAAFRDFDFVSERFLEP
Text: (§5) The full-length cDNA of human PKN3 (WT or wt) was amplified by PCR and cloned into a GST-fusion expression vector under the control in a doxycycline (Dox)-inducible promoter. A kinase dead (KD or kd) version of PKN3, which comprises a K588R substitution, was also cloned into the same vector using the same strategy. The proteins were expressed in HEK293T cells transfected with the PKN3 WT and KD constructs. […] WT PKN3 is phosphorylated at the turn motif threonine (P*-PKN3^T860) and phosphorylates the GSKα substrate, whereas the KD version does neither (FIG. 1).
as §3
Various ATP-type kinase inhibitors were assessed for their ability to inhibit the kinase activity of both recombinant wildtype (WT) and kinase dead (KD) versions of PKN3.

kinase dead PKN3 = target: T2, kinase dead PKN3 (Homo sapiens, UniProt Q6P5Z2, K588R); assay: Priming of kinase dead PKN3 for turn motif threonine phosphorylation by ATP binding pocket competitive inhibitors (Western blot); type: cell-based; conditions: KD PKN3 (K588R) in transfected cells; changing concentrations; FIG. 3
T2 construct: The full-length cDNA of human PKN3 (WT or wt) was amplified by PCR and cloned into a GST-fusion expression vector; GST; expressed in transfected cells; host or cells: HEK293T
T2 sequence (Q6P5Z2 whole entry K588R, the tested form may be a part): as the sequence (Q6P5Z2 whole entry, the tested form may be a part) above, with K588R counted along it
Text: as §5, §3

Row | SMILES | inhibition of PKN3 T860 phosphorylation (PKN3-T860) | inhibition of phosphorylation of S6K-ST389 (S6K-ST389) | inhibition of PKN3 T718 phosphorylation (PKN3-T718) | effect on transformed phenotype of doxycycline treated cells transfected with WT PKN3 [1] | inhibition of phosphorylation of AKT-S473 (AKT-S473) | effect on PKN1 (PKN1) | effect on PKN2 (PKN2) | inhibition of kinase activity of kinase active phosphorylated PKN3 (phospho-GSKα read-out) (PKN3) | priming of kinase dead PKN3 to become phosphorylated at the turn motif threonine (kinase dead PKN3)
1 | Cl.Cl.N=C(N)NN=C(Cn1ccnc1)c1ccc(Cl)cc1Cl [WAY-125132, 2-[1-(2,4-Dichlorophenyl)-2-(1H-imidazol-1-yl)ethylidene]hydrazinecarboximidamide dihydrochloride] | inhibit T860 phosphorylation in a dose dependent manner | inhibit the phosphorylation of S6K-ST389 | not T718 phosphorylation | reversed this effect | inhibit the phosphorylation |  |  |  | 
2 | CO[C@H]1C[C@@H]2CC[C@@H](C)[C@@](O)(O2)C(=O)C(=O)N2CCCC[C@H]2C(=O)O[C@H]([C@H](C)C[C@@H]2CC[C@@H](OC(=O)C(C)(CO)CO)[C@H](OC)C2)CC(=O)[C@H](C)/C=C(\C)[C@@H](O)[C@@H](OC)C(=O)[C@H](C)C[C@H](C)/C=C/C=C/C=C/1C [CCI-779, (3S,6R,7E,9R,10R,12R,14S,15E,17E,19E,21S,23S,26R,27R,34aS)-9,10,12,13,14,21,22,23,24,25,26,27,32,33,34,34a-Hexadecahydro-9,27-dihydroxy-3-[(1R)-2-[(1S,3R,4R)-4-hydroxy-3-methoxycyclohexyl]-1-methylethyl]-10,21-dimethoxy-6,8,12,14,20,26-hexamethyl-23,27-epoxy-3H-pyrido[2,1-c][1,4]oxaazacyclohentriacontine-1,5,11,28,29(4H,6H,31H)-pentone 4′-[2,2-bis(hydroxymethyl)propionate]] | had no effect | inhibit S6K-ST389 | had no effect |  | had no effect | had no effect | had no effect |  | 
3 | CCc1[nH]c(-c2ccc(OC)cc2)nc1-c1ccncc1 [SB202474] |  |  |  |  |  |  |  | not | not
4 | Oc1ccc(-c2nc(-c3ccncc3)c(-c3ccc(F)cc3)[nH]2)cc1 [SB202190] |  |  |  |  |  |  |  | inhibit the kinase activity of kinase active phosphorylated PKN3 in a concentration dependent manner | primed kinase dead PKN3 to become phosphorylated at the turn motif threonine in a concentration dependent manner
5 | C[C@@H](N)[C@H]1CC[C@H](C(=O)Nc2ccncc2)CC1 [Y27632] |  |  |  |  |  |  |  | inhibit the kinase activity of kinase active phosphorylated PKN3 in a concentration dependent manner | primed kinase dead PKN3 to become phosphorylated at the turn motif threonine in a concentration dependent manner
